Molecular target: Aβ42 (Homo sapiens, UniProt P05067)
Assay: Th-T (thioflavin-T) assay of Aβ42 aggregation
Assay type: biochemical
Conditions: for Th-T fluorescence, mean of three wells: compound at 50

Chain of Aβ42 (P05067 672-713): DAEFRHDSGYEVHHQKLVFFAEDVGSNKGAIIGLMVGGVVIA

## C=C1CC[C@@H]2[C@](C)(CC[C@H]3O[C@H](C=C(C)C)C[C@@]23C)[C@@H]1Cc1c(OC)oc(CO)c(C(=O)OC)c1=O [Compound 21]
Reading M54 of time course
  Th-T fluorescence, mean of three wells: 0.2222
Reading M55 of time course
  Th-T fluorescence, mean of three wells: 0.2197
Reading M56 of time course
  Th-T fluorescence, mean of three wells: 0.2209
Reading M57 of time course
  Th-T fluorescence, mean of three wells: 0.2237
Reading M58 of time course
  Th-T fluorescence, mean of three wells: 0.2252
Reading M59 of time course
  Th-T fluorescence, mean of three wells: 0.2206
Reading M60 of time course
  Th-T fluorescence, mean of three wells: 0.2276
Reading M61 of time course
  Th-T fluorescence, mean of three wells: 0.2285
Reading M62 of time course
  Th-T fluorescence, mean of three wells: 0.2296
Concentration 10, unit not given, time-course reading M129
  Th-T fluorescence of Aβ42 with compound, mean of three wells (Fig. 7a source data): 1.701
Concentration 10, unit not given, time-course reading M130
  Th-T fluorescence of Aβ42 with compound, mean of three wells (Fig. 7a source data): 1.706
Concentration 10, unit not given, time-course reading M131
  Th-T fluorescence of Aβ42 with compound, mean of three wells (Fig. 7a source data): 1.73
Concentration 10, unit not given, time-course reading M132
  Th-T fluorescence of Aβ42 with compound, mean of three wells (Fig. 7a source data): 1.6977
Concentration 10, unit not given, time-course reading M133
  Th-T fluorescence of Aβ42 with compound, mean of three wells (Fig. 7a source data): 1.7165
Concentration 10, unit not given, time-course reading M134
  Th-T fluorescence of Aβ42 with compound, mean of three wells (Fig. 7a source data): 1.726
Concentration 10, unit not given, time-course reading M135
  Th-T fluorescence of Aβ42 with compound, mean of three wells (Fig. 7a source data): 1.717
Concentration 10, unit not given, time-course reading M136
  Th-T fluorescence of Aβ42 with compound, mean of three wells (Fig. 7a source data): 1.738
Concentration 10, unit not given, time-course reading M137
  Th-T fluorescence of Aβ42 with compound, mean of three wells (Fig. 7a source data): 1.7043
Concentration 10, unit not given, time-course reading M138
  Th-T fluorescence of Aβ42 with compound, mean of three wells (Fig. 7a source data): 1.717
Concentration 10, unit not given, time-course reading M139
  Th-T fluorescence of Aβ42 with compound, mean of three wells (Fig. 7a source data): 1.708
Concentration 10, unit not given, time-course reading M140
  Th-T fluorescence of Aβ42 with compound, mean of three wells (Fig. 7a source data): 1.723
Concentration 10, unit not given, time-course reading M141
  Th-T fluorescence of Aβ42 with compound, mean of three wells (Fig. 7a source data): 1.719
Concentration 10, unit not given, time-course reading M142
  Th-T fluorescence of Aβ42 with compound, mean of three wells (Fig. 7a source data): 1.725
Concentration 10, unit not given, time-course reading M143
  Th-T fluorescence of Aβ42 with compound, mean of three wells (Fig. 7a source data): 1.723
Concentration 10, unit not given, time-course reading M144
  Th-T fluorescence of Aβ42 with compound, mean of three wells (Fig. 7a source data): 1.716
Concentration 10, unit not given, time-course reading M145
  Th-T fluorescence of Aβ42 with compound, mean of three wells (Fig. 7a source data): 1.741
Concentration 20, unit not given, time-course reading M129
  Th-T fluorescence of Aβ42 with compound, mean of three wells (Fig. 7a source data): 0.972
Concentration 20, unit not given, time-course reading M130
  Th-T fluorescence of Aβ42 with compound, mean of three wells (Fig. 7a source data): 0.9564
Concentration 20, unit not given, time-course reading M131
  Th-T fluorescence of Aβ42 with compound, mean of three wells (Fig. 7a source data): 0.9524
Concentration 20, unit not given, time-course reading M132
  Th-T fluorescence of Aβ42 with compound, mean of three wells (Fig. 7a source data): 0.9585
Concentration 20, unit not given, time-course reading M133
  Th-T fluorescence of Aβ42 with compound, mean of three wells (Fig. 7a source data): 0.9579
Concentration 20, unit not given, time-course reading M134
  Th-T fluorescence of Aβ42 with compound, mean of three wells (Fig. 7a source data): 0.9622
Concentration 20, unit not given, time-course reading M135
  Th-T fluorescence of Aβ42 with compound, mean of three wells (Fig. 7a source data): 0.9636
Concentration 20, unit not given, time-course reading M136
  Th-T fluorescence of Aβ42 with compound, mean of three wells (Fig. 7a source data): 0.9565
Concentration 20, unit not given, time-course reading M137
  Th-T fluorescence of Aβ42 with compound, mean of three wells (Fig. 7a source data): 0.947
Concentration 20, unit not given, time-course reading M138
  Th-T fluorescence of Aβ42 with compound, mean of three wells (Fig. 7a source data): 0.9539
Concentration 20, unit not given, time-course reading M139
  Th-T fluorescence of Aβ42 with compound, mean of three wells (Fig. 7a source data): 0.9666
Concentration 20, unit not given, time-course reading M140
  Th-T fluorescence of Aβ42 with compound, mean of three wells (Fig. 7a source data): 0.9636
Concentration 20, unit not given, time-course reading M141
  Th-T fluorescence of Aβ42 with compound, mean of three wells (Fig. 7a source data): 0.9513
Concentration 20, unit not given, time-course reading M142
  Th-T fluorescence of Aβ42 with compound, mean of three wells (Fig. 7a source data): 0.9675
Concentration 20, unit not given, time-course reading M143
  Th-T fluorescence of Aβ42 with compound, mean of three wells (Fig. 7a source data): 0.9558
Concentration 20, unit not given, time-course reading M144
  Th-T fluorescence of Aβ42 with compound, mean of three wells (Fig. 7a source data): 0.9694
Concentration 20, unit not given, time-course reading M145
  Th-T fluorescence of Aβ42 with compound, mean of three wells (Fig. 7a source data): 0.9486
Concentration 50, unit not given, time-course reading M129
  Th-T fluorescence of Aβ42 with compound, mean of three wells (Fig. 7a source data): 0.5005
Concentration 50, unit not given, time-course reading M130
  Th-T fluorescence of Aβ42 with compound, mean of three wells (Fig. 7a source data): 0.4954
Concentration 50, unit not given, time-course reading M131
  Th-T fluorescence of Aβ42 with compound, mean of three wells (Fig. 7a source data): 0.4987
Concentration 50, unit not given, time-course reading M132
  Th-T fluorescence of Aβ42 with compound, mean of three wells (Fig. 7a source data): 0.5011
Concentration 50, unit not given, time-course reading M133
  Th-T fluorescence of Aβ42 with compound, mean of three wells (Fig. 7a source data): 0.5033
Concentration 50, unit not given, time-course reading M134
  Th-T fluorescence of Aβ42 with compound, mean of three wells (Fig. 7a source data): 0.5026
Concentration 50, unit not given, time-course reading M135
  Th-T fluorescence of Aβ42 with compound, mean of three wells (Fig. 7a source data): 0.5014
Concentration 50, unit not given, time-course reading M136
  Th-T fluorescence of Aβ42 with compound, mean of three wells (Fig. 7a source data): 0.502
Concentration 50, unit not given, time-course reading M137
  Th-T fluorescence of Aβ42 with compound, mean of three wells (Fig. 7a source data): 0.5003
Concentration 50, unit not given, time-course reading M138
  Th-T fluorescence of Aβ42 with compound, mean of three wells (Fig. 7a source data): 0.5022
Concentration 50, unit not given, time-course reading M139
  Th-T fluorescence of Aβ42 with compound, mean of three wells (Fig. 7a source data): 0.5032
Concentration 50, unit not given, time-course reading M140
  Th-T fluorescence of Aβ42 with compound, mean of three wells (Fig. 7a source data): 0.5012
Concentration 50, unit not given, time-course reading M141
  Th-T fluorescence of Aβ42 with compound, mean of three wells (Fig. 7a source data): 0.504
Concentration 50, unit not given, time-course reading M142
  Th-T fluorescence of Aβ42 with compound, mean of three wells (Fig. 7a source data): 0.5037

— article PMC7156458, “Synthetic biology based construction of biological activity-related library of fungal decalin-containing diterpenoid pyrones” (Nature Communications, 2020)
